Several values for one entry are separate records, joined by “and”; a condition that tells them apart may be missing. Equal entries are not always repeated.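 Interpolation was linear, between the two tested concentrations surrounding the appropriate level; five concentrations were tested over 48 hours in 96-well plates. GI50 = concentration required for 50% inhibition of growth. TGI: total growth inhibition.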 *1 amine or outer side, *2 acyl side, *3 side chain or, on linkers, in order; H or OH if unused. Where a SMILES comes first, the peptide text is derived from it. Bridges are numbered along the chain shown (N, C = ends). [ ]: non-standard residue; d: D form. The star is where a group is joined. ξ: configuration not given here. Phe(3,5-F2) = N[C@@H](Cc1cc(F)cc(F)c1)C(=O)O; ξThr(3S) = C[C@H](O[*:3])C(N[*:1])C(=O)[*:2]; Pro(4R-Me) = C[C@H]1CN[C@H](C(=O)O)C1; Pip = O=C(O)[C@@H]1CCCCN1; X1 = Cc1ccc(N*)c(F)c1; CO = O=C([*:1])[*:2]

For this experiment, the system named is MDA-MB-468 breast. The experiment is described as follows: growth of human tumour cells (NCI), 48 h.
For the compound `CCOc1ccc2nc3cc(N)ccc3c(N)c2c1`, the GI50 is 0.268 µM and 0.135 µM; the TGI was 0.972 µM and 0.493 µM.

Consider `Cc1ccc(/C=C/C(=O)c2ccc(F)cc2)s1`, for which the GI50 was 2.97 µM and the TGI was 16.4 µM.

Turning to `COc1cc(-c2csc(NC(=O)Nc3ccc(Cl)cc3)n2)cc(OC)c1OC`, the GI50 was 2.96 µM and the TGI was 9.35 µM.

For `Clc1ccc2c(NCCCCNc3nc(N4CCOCC4)nc4ccccc34)ccnc2c1`, the GI50 was 2.82 µM and the TGI worked out at 7.97 µM.

As for `C=CC(=O)N1CCN([C@@H](CC2CC2)c2ccc([C@H](C)Nc3ncc4c(n3)N(CC)C(=O)OC4)cc2)CC1`, the GI50 is 3.3 µM and the TGI is 13.8 µM.

Consider `COc1ccc(-c2nn3ncccc3c2-c2ccnc(Nc3ccc(F)c(F)c3)n2)cc1`, for which the GI50 was 6 µM and the TGI is more than 18.9 µM.

On to `CN1CCN(c2cc(F)c(NC3=C(Cl)C(=O)c4ncccc4C3=O)c(F)c2)CC1`, for which the GI50 was 1.01 µM and the TGI was determined as 2.61 µM.

Consider `Cc1ccc(NC(=O)N[C@@H](Cc2cc(F)cc(F)c2)C(=O)NC2C(=O)N3CCC[C@H]3C(=O)N3CCCC[C@H]3C(=O)N[C@@H](C)C(=O)N3C[C@H](C)C[C@H]3C(=O)O[C@H]2C)c(F)c1` (stereo partly drawn) ({X1-CO}-[Phe(3,5-F2)][ξThr(3S)]P[Pip]A[Pro(4R-Me)]; ester 2-C), for which the GI50 was 0.174 µM and 0.0874 µM.

For the compound `O=C(Nc1ccccc1/C=C/c1n[nH]c2ccccc12)c1ccccc1`, the GI50 is 6.35 µM and the TGI came to 20.4 µM.

As to `C=C(C)[C@@H]1CC[C@]2(C(=O)OC)CC[C@]3(C)[C@H](CC[C@@H]4[C@@](C)(CCc5nn[nH]n5)[C@H](C(=C)C)CC[C@]43C)[C@@H]12`, the GI50 was 13.8 µM and the TGI came out at 36.4 µM.

Take `CN1CCN(CCCOC(=O)c2c3c(n4ccccc24)C(=O)c2ncccc2C3=O)CC1`: the GI50 is 1.88 µM and the TGI came out at 20.6 µM.

In the case of `Cc1ccc(-c2nnc(SCc3ccc(O)c4ncccc34)o2)cc1`, the GI50 was 1.88 µM and the TGI is more than 100 µM.

On to `C=CCn1c(SCC(=O)Nc2ccc(C(=O)/C=C/c3cc(OC)c(OC)c(OC)c3)cc2)nnc1-c1cc(OC)c(OC)c(OC)c1`, for which the GI50 is 2.45 µM and the TGI was 6.66 µM.

Take `CC(=O)Nc1ccc(CC[C@H]2CCC/C=C/[C@@H]3C[C@H](O)C[C@H]3[C@H](O)/C=C/C(=O)O2)cc1`: the GI50 was 0.0213 µM and the TGI is 0.0503 µM.

Regarding `Clc1ccc2c(NC3CCC(NC4CCCCC4)CC3)ccnc2c1` (configuration not stated), the GI50 was 1.68 µM and the TGI was 8.1 µM.

As to `CCCCCCCCCCCC(c1ccccc1)[N+](C)(C)C` (configuration not stated), the GI50 was 0.257 µM and the TGI came out at 1.35 µM.

Consider `Cc1cc(NC(=O)NCCCOc2ccc(N3C(N)=NC(N)=NC3(C)C)cc2Cl)ccc1S(=O)(=O)F`, for which the GI50 was 0.638 µM and the TGI came to 19.7 µM.

In the case of `CC[C@@H]1C(=O)N(C)c2cnc(Nc3ccc(C(=O)NC4CCC(N5CCN(CC6CC6)CC5)CC4)cc3OC)nc2N1C(C)C` (some centres not stated), the GI50 was 0.00331 µM and < 0.01 µM; the TGI turned out to be 0.121 µM.

As for `O=C(O)CN(CCN(CC(=O)O)CC(=O)O)CCN(CC(=O)O)CC(=O)O`, the GI50 was 4.03 µM and the TGI was 16.4 µM.

Consider `CCCCCCCCCCCC1=NC(C)(C)CN1C(C)C`, for which the GI50 is 1.66 µM and the TGI turned out to be 3.8 µM.

On to `N#CSc1c[nH]c2ccc(/C=C/C(=O)/C=C(O)/C=C/c3ccc4[nH]cc(SC#N)c4c3)cc12`, for which the GI50 is 2.06 µM and the TGI stood at 6.67 µM.

In the case of `Nc1nc(N)c2cc(S(=O)(=O)c3cccc(C(F)(F)F)c3)ccc2n1`, the GI50 is 2.34 µM and the TGI was more than 100 µM.

Regarding `COc1cccc2c1C(=O)c1c(O)c3c(c(O)c1C2=O)C[C@@](O)(C(=O)CO)C[C@@H]3OC1CC(N2CCOCC2)C(O)C(C)O1` (some centres not stated), the GI50 is 0.0369 µM and the TGI came out at 0.216 µM.

Turning to `CN1CCN(c2ccc3nc(-c4[nH]ncc4Nc4ncnc5[nH]ccc45)[nH]c3c2)CC1`, the GI50 is 0.197 µM and the TGI was determined as 0.487 µM.

Regarding `CN1CCC2(CC1)C(=O)Nc1cc(NC(=O)c3ccc4c(c3)C[C@@H]3C(C)(C)[C@H](O)[C@H](F)C[C@@]3(C)O4)ccc12`, the GI50 is 0.74 µM and the TGI stood at 11.7 µM.

As to `c1ccc2[nH]c(-c3ccc(Nc4nc(N5CCCC5)nc5[nH]ncc45)cc3)nc2c1`, the GI50 is 0.277 µM and the TGI amounted to 1.21 µM.

In the case of `Cc1ccc(NC(=O)c2ccoc2)cc1-c1ccc(C(=O)NCC2CC2)cc1`, the GI50 is 6.37 µM and the TGI was more than 25 µM.

As for `CC(C)Cn1cnc2c(N)nc3ccccc3c21`, the GI50 is 12.4 µM and the TGI is more than 62.1 µM.

For the compound `COCCn1c(Nc2ccc(C(=O)NO)cc2)nc2ccccc21`, the GI50 is 3.43 µM and the TGI worked out at 16 µM.

Turning to `Cc1[nH]nc2ncc(C#Cc3cncc(C(=O)Nc4ccc(CN5CCN(C)CC5)c(C(F)(F)F)c4)c3)cc12`, the GI50 is 0.141 µM and the TGI came to 0.911 µM.

For `COc1ccc(-c2nc(-c3nc4cc(Cl)c(Cl)cc4[nH]3)c3ccccn23)cc1`, the GI50 is 5.04 µM and the TGI is more than 100 µM.

Take `CCCN1CCC(Oc2cc(Nc3nc(Nc4cccc(F)c4C(N)=O)c4cc[nH]c4n3)c(OC)cc2Cl)CC1`: the GI50 was 0.537 µM and the TGI is 1.35 µM.

As to `CCn1c(-c2nonc2N)nc2cnc(Oc3cccc(NC(=O)c4ccc(OCCN5CCOCC5)cc4)c3)cc21`, the GI50 is 1.13 µM and the TGI stood at 19.9 µM.

For `Clc1cccc(-c2cc(-c3ccc4c(c3)OCCO4)[nH]n2)c1`, the GI50 was 10.9 µM and the TGI is 57.8 µM.

`COc1ccc(C2c3cc4c(cc3OC(N3CCOCC3)C2C)OCO4)cc1OC` (configuration not stated): the GI50 is 7.56 µM and the TGI was more than 100 µM.

On to `CN(C)CCN1C(=O)c2cccc3cc(N)cc(c23)C1=O`, for which the GI50 is 2.95 µM and the TGI stood at 11.9 µM.

Turning to `CCCCCOC(=O)c1c(C)[nH]c(/C=C2\N=C(c3ccc[nH]3)C=C2OC)c1C`, the GI50 was 0.0546 µM and the TGI was 1.32 µM.

In the case of `C#C[C@]1(O)CC[C@H]2[C@@H]3CC=C4c5sc(Nc6cc(C)cc(C)c6)nc5CC[C@]4(C)[C@H]3CC[C@@]21C`, the GI50 was 2.54 µM and the TGI was determined as 8.69 µM.

In the case of `CCN(Cc1ccccc1)c1ccc(/C=C2\COc3ccccc3C2=O)cc1`, the GI50 is 438 µM and the TGI was more than 1000 µM.

Source of the values: PubChem BioAssay (NCI).
